Entries after “also recorded” stand apart in the source; their conditions may differ.
Tests used:
Format in all cases: cell-based, mice
[1] = tested on: NMDAR-mediated Ca2+ transients in dSPN spines; assay: NMDAR-mediated Ca2+ transients in dSPN spines, two-photon glutamate uncaging and Fluo-5F imaging
Excerpt: dSPNs were identified by somatic tdTomato expression using two-photon excited fluorescence that was induced and detected using a Prairie Ultima laser scanning microscope system (Prairie Technologies). Fluorescent and bright-field images were viewed in register using a Dodt contrast detector system. Cells were patched using video microscopy with a Hitachi CCD camera and an Olympus 60×/1.0 NA lens. Green (Fluo 5F) and red (tdTomato; Alexa 568) signals were acquired using 810 nm excitation (Verdi/Mira laser). Following patch rupture the internal solution was allowed to equilibrate for 10-15 minutes before imaging. High magnification z-series of dendrite regions 50-100 μm from the soma were acquired with 0.072 μm2 pixels with 4 μs dwell time and 0.3 μm z-steps. […]
dSPNs were loaded with 25 μM Alexa 568 and 300 μM Fluo 5F via the internal recording solution, containing (in mM): 120 CsMeSO3, 5 NaCl, 10 TEA-Cl, 10 HEPES, 5 QX-314, 4 ATP-Mg and 0.3 GTP-Na. […] Changes in Fluo 5F fluorescence were averaged from 3 trials and measured as ΔF/Fo.
Glutamate uncaging was achieved using a Verdi/Mira (Coherent Laser Group, Santa Clara, Calif.) (Plotkin et al., 2014). […] Photolysis power was tuned via a third Pockels cell modulator (Con Optics, Danbury, Conn.) to achieve uEPSCs≤5 pA. uEPSC amplitudes were measured from averaged (3-5 repetitions) traces. […]

[2] = tested on: NMDAR-mediated currents in dSPNs; assay: NMDAR-mediated uEPSCs and EPSCs in dSPNs, whole-cell voltage clamp; conditions: for amplitude of NMDAR-mediated uEPSCs: muscarine and VU10010 5 μM in the presence of SKF81297, glutamate uncaging
Procedure: For whole-cell voltage clamp recordings, patch pipettes were loaded with internal recording solution containing (mM): 120 CsMeSO3, 15 CsCl, 8 NaCl, 10 HEPES, 0.2 EGTA, 10 tetraethylammonium Chloride (TEA-Cl), 5 QX-314, 2 Mg-ATP, 0.3 Na-GTP; pH was adjusted to 7.25 with CsOH and osmolarity to ˜305 mOsm l^−1. All the recordings were made using a MultiClamp 700 A amplifier, and signals were filtered at 2 kHz and digitized at 10 kHz. Data were excluded when the series resistance changed >20% over the time course of the experiment. For perforated patch recordings, the internal recording solution comprised (in mM): 125 KMeSO4, 14 KCl, 2 MgCl2, 0.2 EGTA, 10 HEPES; pH was adjusted to 7.25 with NaOH and osmolarity to ˜280 mOsm l^−1. Amphotericin B was used to achieve electrical access through the perforated-patch method (Shen et al., 2007; 2008; herein incorporated by reference in their entireties). Capacitance current was continuously monitored during perforation by applying a 5-10 mV pulse from a holding potential of −70 mV. The amplifier bridge circuit was adjusted to compensate for series resistance and continuously monitored during recordings. Electrode capacitance was also compensated. Data were excluded when the input resistance (Ri) changed >20% over the time course of the experiment.
Glutamate uncaging was achieved using a Verdi/Mira (Coherent Laser Group, Santa Clara, Calif.) (Plotkin et al., 2014). 5 mM MNI-glutamate was superfused over the slice at 0.4 ml/hr using a syring pump and multi-barreled perfusion manifold (Cell MicroControls, Norfolk, Va.). The perfusion solution was (in mM): 124 NaCl, 3 KCl, 2 CaCl2, 1 NaH2PO4, 26 HEPES and 16.66 glucose, and also contained (in μM): 3 muscarine, 10 serine, 10 NBQX and 10 gabazine, plus or minus: 3 SKF81297 and/or 5 VU10010). Glutamate was uncaged adjacent to individual spines using 1 ms pulses of 720-725 nm light typically 10-20 mW in power at the sample plane. Photolysis power was tuned via a third Pockels cell modulator (Con Optics, Danbury, Conn.) to achieve uEPSCs≤5 pA. uEPSC amplitudes were measured from averaged (3-5 repetitions) traces. All uncaging experiments were performed in 0 mM Mg^2+-containing solutions.
To determine the situation in dSPNs, the effect of muscarine and VU10010 on NMDAR-mediated EPSCs evoked by uncaging glutamate on spine heads (uEPSCs) was examined in the presence of SKF81297.

[3] = tested on: dSPN glutamatergic synapses; assay: Spike-timing-dependent LTP induction (pre-post pairing) in dSPNs, ex vivo slices; conditions: VU10010 5 μM
[4] = tested on: dSPN glutamatergic synapses; assay: Depotentiation of established LTP by low-frequency stimulation (2 Hz, 10 min) in dSPNs; conditions: VU10010 5 μM

SMILES: Cc1cc(C)c2c(N)c(C(=O)NCc3ccc(Cl)cc3)sc2n1 [VU10010]
- decrease of NMDAR-mediated Ca2+ transients ([1]; SKF81297 3 μM, then muscarine and the M4R PAM co-applied, n=12): ~40%
- NMDAR-mediated Ca2+ transients ([1]; VU10010 5 μM, dSPNs from LID mice): reduced NMDAR-mediated Ca2+ transients
- muscarine modulation of NMDAR-mediated EPSCs ([2]; muscarine 3 μM + VU10010 5 μM, local electrical stimulation): augmented
- amplitude of NMDAR-mediated uEPSCs [2]: significantly reduced the amplitude
- amplitude of NMDAR-mediated uEPSCs ([2]; listed as VU 10010): suppressed NMDAR-mediated uEPSC currents
- STDP LTP induction in dSPNs ([3]; dyskinetic (LID) mice): blocked the induction of STDP LTP; also recorded: LTP was disrupted
- STDP LTP induction in dSPNs ([3]; naive mice): disrupted STDP LTP induction; also recorded: LTP induction was also blocked
- depotentiation by LFS in dSPNs ([4]; dyskinetic (LID) mice, no D1R antagonist): restored depotentiation
- depotentiation by LFS in dSPNs ([4]; naive mice): Depotentiation also was achieved; also recorded: promoted the reversal of established LTP
